From article PMC6099110, “Valepotriates From the Roots and Rhizomes of Valeriana jatamansi Jones as Novel N-Type Calcium Channel Antagonists” (Frontiers in Pharmacology, 2018)

System: T1, Cav2.2 N-type voltage-gated calcium channel
T1 construct: gene CACNA1B
Assay: two-electrode voltage clamp of Cav2.[…] expressed in Xenopus oocytes, dose-response
Assay type: cell-based

| Structure (SMILES) | EC50 [µM] |
| --- | --- |
| CC(=O)OCC1=CO[C@@H](OC(=O)CC(C)C)[C@H]2C1=C[C@H](OC(=O)CC(C)C)[C@]2(O)COC(=O)C(OC(=O)CC(C)C)C(C)C (stereo partly drawn) [compound 1, (1S, 7S, 8R, 9S)-11-acetoxy-10-[a-(isovaleroxy)isovaleroxy]-1,7-diisovaleroxyvaltrate hydrin] | 3.3 |
| CC(=O)OCC1=CO[C@@H](OC(=O)CC(C)(C)OC(C)=O)[C@H]2C1=C[C@H](OC(=O)CC(C)C)[C@]2(O)COC(=O)CC(C)C [compound 3, valtrate hydrin B8] | 4.8 |
